Molecules are shown by their SMILES. Values after ≈ are worked out from the molar mass of the structure shown.

For this assay, the system named is U-937. The assay can be described thus: Inhibition of etoposide-induced caspase 3 induction in human U937 cells after 7 hrs. It counts as functional, cell-based. Conditions: U-937, 7 h.

With `COc1cc(/C=C2/CO[C@@H](c3ccc(O)c(OC)c3)[C@@H]2COC(=O)c2ccc(O)cc2)ccc1O` [AGASTENOL], the midpoint of inhibition, the IC50, lay at 11.4 µg/mL (≈ 23.8 µM). Next, `COc1cc(C[C@@H]2CO[C@@H](c3ccc(O)c(OC)c3)[C@@H]2COC(=O)c2ccc(O)cc2)ccc1O` [AGASTINOL]: 15.2 µg/mL (≈ 31.6 µM).

For the origin of these results see ChEMBL document CHEMBL1159334, “Agastinol and agastenol, novel lignans from Agastache rugosa and their evaluation in an apoptosis inhibition assay” (J Nat Prod, 2002).
